Test results: patent publication US8685372B2, “Peptides and aptamers for targeting of neuron or nerves” (The Regents of the University of California, priority 2009, dated 2014)
Residues, ends and D or L forms follow the SMILES beside them. *: point of attachment. 5FAM = O=C1OC2(c3ccc(O)cc3Oc3cc(O)ccc32)c2ccc(C(=O)*)cc21

How the values were obtained:
[1] = tested on: sciatic nerves; test: In vivo nerve labeling with fluorescently labeled peptides (nerve versus adjacent non-nerve tissue); design: species or system mice; details: for nerve to muscle contrast: FAM-labeled peptides intravenously
Experimental: To test the nerve binding affinity of each of the isolated peptide sequences in vivo, carboxyfluorescein (FAM)-labeled peptides were injected intravenously into living mice. Following a wash-out period, the contrast between nerve and muscle binding of the labeled peptides was evaluated.
Wild-type albino C57BL6 (Jackson Laboratory) or SKH1 (Charles River Laboratories) mice were treated intravenously with 150 nmoles of fluorescently labeled SEQ ID NO:4 via tail vein injection. Following a 2-3 hour wash-out period for SEQ ID NO:25 or 5-6 hours for SEQ ID NO:31, mice were anesthetized with ketamine and midazolam (80 mg/kg intraperitoneally), a skin incision was made over the dorsal surface of the hind, legs and the sciatic nerves exposed bilaterally. […] Nerves and adjacent non-nerve tissue was delineated with Image J and relative fluorescence was measured. Following background subtraction using dark current measurements and measurements of a standard, the ratios of peptide binding to nerve versus adjacent non-nerve tissue were calculated.

[2] = tested on: sciatic nerves and surrounding non-nerve tissue; assay type: in vivo, mice
Source text: To evaluate the time course of peptide binding to nerve tissue, sciatic nerves and surrounding non-nerve tissue in living mice were imaged before and after intravenous administration of SEQ ID NO:25, Prior to administration of SEQ ID NO: 25 (FIG. 3A), there was little contrast of the nerve (arrowheads) in relation to surrounding non-nerve tissue. Within seconds following intravenous administration of SEQ ID NO:25 (FIG. 3B), the fluorescent injectate could be seen leaking from capillaries (arrows), including capillaries associated with the sciatic nerves (insert). […] Useful contrast between nerve and surrounding muscle begins to develop by 2-3 hours after intravenous injection (FIG. 3E) and lasts several hours (FIG. 3F). […] Serum half-life was calculated at ˜10 minutes.
Female 8 week-old SKH1 mice were anesthetized with ketamine and midazolam and a skin incision was made over the dorsal surface of the hind legs and the sciatic nerves exposed. A preinjection image was taken a dissecting microscope (Lumar Zeiss) and a monochrome camera (Coolsnap). The mice were treated intravenously with […] of SEQ ID NO:25 via, tail vein injection. Sequential fluorescence imaging was then performed as described above: excitation 470/40 nm, emission 525/50 nm, exposure 15 milliseconds-5 seconds. Nerves and adjacent non-nerve tissue were delineated with Image J and relative fluorescence was measured. Quantification of fluorescence was then performed following subtraction of dark current and normalizing to a standard.

[3] = Generalized toxicity: activity, behavior and weight gain; assay type: in vivo, mice; details: single intravenous injection of 15-5,000 nmoles, up to 8 weeks of monitoring
Experimental: To evaluate generalized toxicity following peptide administration, the generalized activity, behavior and weight gain of mice after a single intravenous injection of 15-5,000 nmoles of SEQ ID NO:25 was studied.
Female 8 week-old SKH1 mice (average weight 25 g) were treated with varying amounts of SEQ ID NO:25 ranging from 15-5,000 nmoles. Generalized activity, behavior and weight gain were evaluated following single intravenous injection of 15-5,000 nmoles of […] on a daily basis for 3 clays following injection. Thereafter, the mice were monitored three times per week for 8 weeks.

[4] = Peptide biodistribution and metabolism (organ fluorescence, LC-MS and MALDI of urine); assay type: in vivo, mice
Experimental: (§1) To evaluate the biodistribution of the peptide following systemic administration, organs were harvested from mice treated with SEQ ID NO:4 and fluorescence uptake was evaluated. […] To evaluate the metabolism of the peptide as it passed through the renal system, liquid chromatography-mass spectrometry (LC-MS, Agilent) tracing was used to compare urine obtained from mice injected with SEQ ID NO:25 or SEQ ID NO:31 intravenously versus urine from normal mice spiked with the native SEQ ID NO:25 or SEQ ID NO:31. […] Next, matrix-assisted. laser desorption/ionization (MALDI) was used to evaluate the nature of the modification to the peptide as it was metabolized.
as §1, with “NO:25 and” for “NO:25 or”, “ID NO:3” for “ID NO:31”, “ID NO:25.” for “ID NO:25 or SEQ ID NO:31.”, “Next, matrix-assisted” for “Next, matrix-assisted.”

[5] = tested on: sciatic nerve; test: Effect of nerve injury (crush, devascularization) on labeling; assay type: in vivo, mice
Experimental: The ability of peptides to label peripheral nerves following nerve crush injury was evaluated in mice using SEQ ID NO:25. […] (Occasionally, nerve labeling immediately at the site of injury was slightly diminished compared to nerve labeling several centimeters away from the site of injury (FIG. 6D), but this observation was highly variable (FIGS. 6B,F) and not statistically significant (FIG. 6I)).
Wild type mice were anesthetized and the left sciatic nerve exposed and crushed with microforceps for 3-5 seconds. Muscular contractions during the crush after immediately afterwards were monitored to ensure uniformity of the injury. The skin incision was then closed and mice returned to their cages to recover. At varying times after crush injury, intravenous SEQ ID NO:25 (150 nmoles) was administered. Two to three hours after intravenous SEQ ID NO:25 treatment, the mice were anesthetized, bilateral sciatic nerves exposed and quantitative fluorescence microscopy was used to measure nerve fluorescence. Nerve and adjacent muscle fluorescence were measured using Image J software by measuring standardized boxed regions. Crushed and contralateral control nerve fluorescence were compared for each animal.

[6] = tested on: human recurrent laryngeal nerve; test: Human nerve labeling: resected recurrent laryngeal nerves and adjacent muscle incubated with peptide; assay type: binding
Experimental: To evaluate whether or not SEQ ID NO:25 could selectively bind human nerves as compared to non-nerve tissue, freshly resected recurrent laryngeal nerves and adjacent muscle obtained from patients undergoing total laryngectomy for laryngeal cancer were incubated with SEQ ID NO:25. […] This binding pattern is similar to the binding pattern observed in mice.
To evaluate whether or not SEQ ID NO:25 could selectively bind human nerves as compared to non-nerve tissue, freshly resected recurrent laryngeal nerves and adjacent muscle obtained from patients undergoing total laryngectomy for laryngeal cancer were incubated with SEQ ID NO:25 at […] for 15 minutes and washed in saline for 15 minutes each. The nerve and muscle segments were then placed on a black non-fluorescent plate and imaged (Maestro, CRI). The nerve segments were then embedded in Tissue-Tek®, frozen and cryosectioned. 7-10 μm cryosections were then. imaged with standard fluorescence microscopy. Adjacent sections were stained with hematoxylin and eosin (H&E) and imaged.

[7] = tested on: sciatic nerves; test: In vivo nerve labeling with fluorescently labeled peptides (nerve versus adjacent non-nerve tissue); design: species or system mice
[8] = tested on: dissected nerve tissue; test: In vitro nerve binding: dissected nerve tissue incubated with peptide; design: species or system mice; details: 100 nM peptide, one hour incubation
[9] = tested on: sciatic nerves; test: Dose response of peptide binding (nerve to muscle contrast ratio); assay type: in vivo, mice; details: 5,000 nmoles, at 2 hours
Experimental: To determine the dose response of peptide binding, the nerve to muscle contrast ratio was measured as a function of the amount of peptide administered (FIG. 4D).
Female 8 week-old SKH1 mice (average weight 25 g) were treated with varying amounts of SEQ ID NO:25 ranging from […]. After a 2 hour washout period, mice were sacrificed and sciatic nerves exposed. Nerves and adjacent non-nerve tissue were delineated with Image 3 and relative fluorescence was measured. Quantification of fluorescence was then performed following subtraction of dark current and normalizing to a standard. For the mice injected with 5,000 nmoles of SEQ ID NO:4, it was noted that background fluorescence was still very high at 2 hours, making the contrast ratio low even though the absolute nerve fluorescence was high. For these mice, the skin incisions were repaired and the mice were allowed to awaken from anesthesia, then at 6 hours following initial SEQ ID NO:4 administration, the mice were sacrificed and the sciatic nerves exposed and analyzed as above.

[10] = tested on: sciatic nerve; test: Histology: localization of binding in nerves of thy1-YFP transgenic mice; assay type: in vivo; details: mouse, in vivo
Source text: To evaluate the localization of SEQ ID NO:4 binding in nerves, we treated thy1-YFP transgenic mice whose axons are genetically encoded with YFP under a neuron specific promoter (Feng et al, Imaging neuronal subsets in transgenic mice expressing multiple spectral variants of GFP. Neuron, 2000) with SEQ ID NO:31. […] These deeper nerve structures were not easily seen either with brightfield (FIG. 5A, insert) or YFP (FIG. 5B, insert) imaging. To evaluate the localization of SEQ ID NO:4 binding on a cellular level, we imaged cryosections (3-5 μm) of nerves and attached muscles from thy1-YFP animals treated with SEQ ID NO:31.

[11] = tested on: sciatic nerve conduction; details: mouse, in vivo
Experimental: Maximal compound muscle action potential amplitude (CMAP) and nerve conduction latency were measured as described in Osuchowski et al, Noninvasive model of sciatic nerve conduction in healthy and septic mice: reliability and normative data, Muscle Nerve, 2009), Briefly, control female 8 week-old SKH1 mice and mice treated with SEQ ID NO:25 were anesthetized with ketamine-midazolam and placed in a prone position. CMAP potentials were evoked (Grass stimulator) with stimulating electrode (Medtronics) placed 2 mm lateral to the midline. The recording electrode was an ear-clip electrode (Life-tech.com) placed on the digits of the hind foot and the reference electrode was placed on the heel of the foot. Maximal CMAPs were generated by gradually increasing the stimulation (5-10V, 1 pulse per second, paired, 0.5-2 sec duration) until a maximal, artifact free tracing was obtained. The CMAP traces were captured on a digital oscilloscope (Tektronic). Nerve conduction latency was measured from the beginning of the stimulation to the start of the upslope. CMAP amplitude was measured from the start of the upslope to the peak.

[12] = tested on: MBP
Experimental: To test the nerve binding affinity of each of the isolated peptide sequences in vitro, dissected nerve tissue was removed from mice and incubated for one hour with 100 nM of each peptide, including a control peptide made up of amino acids that were contained within the various phages selected and sequenced, but in a mixed-up order and designed without repeating any single amino acid except for glycine (which was added to the C-terminus as a flexible linker).

## CC(=O)N[C@@H](CO)C(=O)N[C@@H](Cc1c[nH]cn1)C(=O)N[C@@H](CO)C(=O)N[C@@H](CC(N)=O)C(=O)N[C@H](C(=O)N[C@@H](CCC(N)=O)C(=O)N[C@H](C(=O)N[C@@H](CC(C)C)C(=O)N[C@@H](C)C(=O)N[C@@H](CCCCN)C(=O)N[C@@H](C)C(=O)N1CCC[C@H]1C(=O)N[C@@H](CCC(=O)O)C(=O)N[C@@H](Cc1c[nH]cn1)C(=O)N[C@H](C(=O)NCC(=O)N[C@@H](CCCCNC(=O)c1ccc2c(c1)C(=O)OC21c2ccc(O)cc2Oc2cc(O)ccc21)C(N)=O)[C@@H](C)O)[C@@H](C)O)[C@@H](C)O [SEQ ID NO:25, acetyl-SHSNTQTLAKAPEHTGK(5,6FAM)-amide] (Ac-SHSNTQTLAKAPEHTGK(5FAM)-NH2)
[1]; derivatives of peptide SEQ ID NO: 4
  Nerve contrast: High
[2]; after intravenous injection
  time at which useful contrast between nerve and surrounding muscle begins to develop: 2 to 3 h
[2]; by 4-5 hours post-injection
  nerve to muscle contrast ratio: 8-10 fold
[2]; by 24 hrs post-injection
  visible contrast between nerve and muscle: all visible contrast between nerve and muscle had disappeared
[2]; mouse, in vivo, iv
  time of highest muscle fluorescence: highest immediately following intravenous administration
  time of peak nerve fluorescence post-administration: around 10 minutes
[3]
  generalized activity, behavior and weight gain versus uninjected/control mice: did not have any apparent changes
[4]; LC-MS
  native peptide detectable in urine of intravenously injected mice: none
[4]; MALDI
  only fluorescently labeled entity identified in urine: lysine-FAM
[5]; 1 day after crush injury
  nerve labeling compared to contralateral control nerve: intact
[5]; 3 days after crush injury
  decrease of nerve labeling compared to contralateral control nerve: 40%
[5]; 7 days after crush injury
  nerve labeling compared to contralateral control nerve: returned to control levels
[5]; immediately following nerve devascularization
  nerve fluorescence compared to contralateral control side: highly diminished
[6]; 50 μM for 15 minutes
  binding to human nerves as compared to adjacent muscle: Selective binding
[6]; tissue sections
  pattern of nerve binding in human tissue: connective tissue surrounding the nerve, i.e. epineurium, perineurium, and endoneurium
[7]; facial nerve, brachial plexus, sciatic nerve
  systemic survey of nerves labeled: all nerves were brightly labeled

## NTQTLAKAPEHT (peptide that specifically binds to a neuron, nerve, or component of either) [SEQ ID NO:4]
[8]
  uptake/binding to dissected nerve tissue compared to no peptide or control peptide: two-fold increase over control to no difference from control
[1]; FAM-labeled peptide intravenously, living mice, exposed sciatic nerves, after wash-out
  nerve fluorescence relative to adjacent non-neural tissue: 4 fold
[1]; living mice, after wash-out
  nerve to muscle contrast: best nerve to non-nerve contrast
[9]
  nerve to muscle contrast ratio: low
[3]
  generalized activity, behavior and weight gain versus uninjected/control mice: similar
[4]; mouse, in vivo
  biodistribution following systemic administration (organ fluorescence uptake): accumulated in the kidney and was excreted into the urine
[5]; 3 days following injury
  nerve labeling after injury: diminished
[5]; 7 days after crush injury
  nerve labeling compared to contralateral control nerve: recovers
[5]; mouse, in vivo
  nerve fluorescence as a function of distance from crush site: does not significantly diminish
[10]
  colocalization of labeling with myelin or axons: does not appear to colocalize
[10]; listed as SEQ ID NO: 4
  colocalization of labeling with myelin or axons: does not colocalize
[11]
  shape of the CMAP curve versus control animals: similar
[7]; mouse, in vivo
  labeling of nerves in the central nervous system (CNS): no evidence of labeling

## TYTDWLNFWAWP (peptide that specifically binds to a neuron, nerve, or component of either) [SEQ ID NO:2]
[8]
  uptake/binding to dissected nerve tissue compared to no peptide or control peptide: little increase
[12]
  increase in binding to MBP crosslinked beads compared to control beads (with no MBP): 10 fold
[1]; living mice, after wash-out
  nerve to muscle contrast: little significant nerve-to muscle contrast
